TGI and GI50 data for 16 molecules are collected here from PubChem BioAssay (NCI).

Values joined by “and” are separate entries in the source; they are usually repeats but may differ in a detail not shown here. Identical values can stand only once.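 Grown in 96-well plates, cells were treated for 48 hours with each compound at five concentrations. Insufficient inhibition: endpoint recorded as highest concentration tested. GI50 marks 50% less growth. The concentration for full growth arrest is given as TGI.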

Holding throughout (assay): NCI anticancer screen, dose series, 48 h
Assay [1] concerns M14 melanoma.
Assay [2] concerns IGROV1 ovarian.
Assay [3] relates to NCI-H460 lung.
The subject of assay [4] is CAKI-1 renal.
Assay [5] deals with U251 CNS.
The subject of assay [6] is OVCAR-5 ovarian.
The test system of assay [7] is 786-0 renal.
The test system of assay [8] is BT-549 breast.
In assay [9] the test system is SK-OV-3 ovarian.
The subject of assay [10] is HCC-2998 colon.

Take `CCCn1cnc2c(SCC(=O)O)nc(N)nc21`: the TGI in [1], in assay [2], in assay [3], in assay [4], in assay [5] and in [6] was greater than 100 µM throughout. In addition, the TGI in assay [7], in assay [8], in [9] and in assay [10] was greater than 100 µM each time.

On to `CSc1ncc(Br)c(Sc2nc(N)nc3nc[nH]c23)n1`, for which the GI50 is 2.78 µM in assay [1]; 12.9 µM in assay [2]; 2.15 µM in assay [3]; 1.84 µM in [4]; 10.3 µM in assay [5]; 4.98 µM in [6]. Moreover, the GI50 in assay [7] was 3.82 µM; in assay [8] it was 2.64 µM; in [9], 1.62 µM; in [10], 2.56 µM. For the same molecule, the TGI in assay [1] is greater than 100 µM; in assay [2], 44.2 µM; in assay [3] it was 13.3 µM; in [4] it was 34.1 µM; in assay [5] it was 57 µM; in [6], greater than 100 µM. Moreover, the TGI in [7] was greater than 100 µM; in assay [8], greater than 100 µM; in [9], 10.3 µM; in [10] it was 16.2 µM.

In the case of `COc1ccc(C(=O)c2cc3c(N)c(C(=O)Nc4ccccc4)sc3nc2C)cc1`, the GI50 in assay [1] was 0.779 µM; in assay [2], 2.51 µM; in [3] it was 0.439 µM; in assay [4] it was 0.656 µM; in assay [5] it was 0.704 µM; in assay [6], 3.1 µM. The GI50 is 4.73 µM in assay [7], 38.6 µM in assay [8], 0.763 µM in assay [9] and 1.96 µM in assay [10]. Further, the TGI in [1] was greater than 100 µM; in assay [2], greater than 100 µM; in [3] it was 3.93 µM; in assay [4], greater than 100 µM; in [5], greater than 100 µM; in [6], greater than 100 µM. Further, the TGI is greater than 100 µM in assay [7], greater than 100 µM in assay [8], greater than 100 µM in [9] and 55.3 µM in assay [10].

As for `Cc1cc(Nc2nc(C(=O)Nc3ccccc3)nc3ccccc23)n[nH]1`, the GI50 is 3.48 µM in assay [1]; 4.48 µM in assay [2]; 2.29 µM in [3]; 1.87 µM in [4]; 5.71 µM in assay [5]; greater than 25 µM in [6]. Further, the GI50 in assay [7] is 10.1 µM; in assay [8] it was 15.7 µM; in assay [9], 12.8 µM; in assay [10] it was 17.7 µM. For the same molecule, the TGI in assay [1], in assay [2], in assay [3], in assay [4], in assay [5] and in assay [6] was greater than 25 µM throughout. Also, the TGI in assay [7], in assay [8], in [9] and in [10] was greater than 25 µM in each case.

For `CN(C)c1ccc(/C=C2\N=C(c3ccccc3)N(c3cc(C(F)(F)F)ccc3Cl)C2=O)cc1`, the GI50 is greater than 100 µM in assay [1]; greater than 100 µM in assay [2]; greater than 100 µM in [3]; greater than 100 µM in [4]; greater than 94.7 µM in assay [5]; greater than 100 µM in assay [6]. In addition, the GI50 in assay [7], in assay [8], in assay [9] and in assay [10] was greater than 100 µM throughout. The TGI in assay [1], in assay [2], in [3], in [4], in assay [5] and in assay [6] was greater than 100 µM in each case. Moreover, the TGI in assay [7], in [8], in [9] and in assay [10] was greater than 100 µM in each case.

`C#CCNC(=S)N/N=C(\C)c1ccccn1`: the GI50 was 0.454 µM in assay [1]; 0.0522 µM in assay [2]; 0.949 µM in assay [3]; 0.396 µM in assay [4]; 0.408 µM in [5]; 0.885 µM in [6]. Further, the GI50 in [7] is 0.354 µM; in [8], 0.618 µM; in assay [9], 3 µM; in [10], 1.24 µM. Besides, the TGI in assay [1] was 5.15 µM; in assay [2], greater than 100 µM; in assay [3], 5.22 µM; in [4] it was greater than 33.8 µM; in assay [5] it was greater than 100 µM; in assay [6] it was greater than 100 µM. The TGI in assay [7], in [8], in assay [9] and in [10] was greater than 100 µM in each case.

Turning to `CNNC(=N\S(=O)(=O)c1cc(C)c(Cl)cc1SCc1ccccc1)/N=C/c1ccc([N+](=O)[O-])s1`, the GI50 in assay [1] was 9.97 µM; in assay [2] it was greater than 100 µM; in assay [3], greater than 64.1 µM; in [4], greater than 100 µM; in assay [5] it was greater than 100 µM; in assay [6], greater than 100 µM. Besides, the GI50 was greater than 100 µM in assay [7], greater than 100 µM in [8], greater than 100 µM in assay [9] and 1.29 µM in [10]. Also, the TGI in assay [1] was greater than 78.5 µM; in assay [2], greater than 100 µM; in assay [3] it was greater than 100 µM; in assay [4] it was greater than 100 µM; in [5], greater than 100 µM; in assay [6], greater than 100 µM. Further, the TGI in [7], in assay [8] and in assay [9] was greater than 100 µM throughout.

As for `NCCCCC1NC(=O)C(CC(=O)O)NC(=O)CNC(=O)C(CCCN=C(N)N)NC(=O)C(N)CSSCC(C(=O)O)NC(=O)C(CC(=O)O)NC(=O)C2CCCN2C(=O)CNC1=O` (stereo not given), the GI50 in assay [1] was greater than 100 µM; in assay [2] it was greater than 100 µM; in assay [3], greater than 100 µM; in [4] it was 65.4 µM; in [5], greater than 100 µM; in assay [6] it was greater than 100 µM. Moreover, the GI50 in assay [7], in assay [8], in [9] and in assay [10] was greater than 100 µM in each case. Also, the TGI in assay [1], in assay [2], in assay [3], in [4], in [5] and in [6] was greater than 100 µM each time. For the same molecule, the TGI in [7], in assay [8], in assay [9] and in [10] was greater than 100 µM throughout.

With `O=[N+]([O-])c1nccn1CC(O)CN1CCCCC1` (stereo not given), the TGI in [1], in [2], in assay [3], in [4], in [5] and in [6] was greater than 100 µM each time. Further, the TGI in assay [7], in [8], in assay [9] and in assay [10] was greater than 100 µM throughout.

For `COC(=O)C(CCC(=O)CCl)N1C(=O)c2ccccc2C1=O` (stereo not given), the TGI in [1] is 14.8 µM; in assay [2], 26.9 µM; in assay [3], 29.5 µM; in assay [4], 26.7 µM; in [5] it was 28.9 µM; in assay [6], 28.4 µM. Besides, the TGI in assay [7] came out at 15.2 µM; in assay [8] it was 21.8 µM; in [9], 31.5 µM; in [10], 22.5 µM.

Regarding `O=C(Nc1ccc(-n2ccc3c(NC(=O)c4ccccc4)ncnc32)cc1)c1cccc(C(F)(F)F)c1`, the GI50 in [1] was 2.85 µM; in [2] it was 5.63 µM; in [3], 0.0837 µM; in assay [4], 1.13 µM; in assay [5], 0.146 µM; in [6], 6.18 µM. The GI50 is 2.91 µM in [7], 9.57 µM in assay [8], 4.12 µM in [9] and 4.96 µM in [10]. The TGI in [1] was 17.6 µM; in assay [2], 27.2 µM; in assay [3] it was 12.3 µM; in assay [4] it was greater than 44.6 µM; in assay [5], 13.7 µM; in [6], 31.7 µM. In addition, the TGI in assay [7] came out at 21.9 µM; in [8] it was 30 µM; in assay [9], 29.4 µM; in [10], 27 µM.

Turning to `CC(C)c1nc(N(C)S(C)(=O)=O)nc(-c2ccc(F)cc2)c1/C=C/[C@@H](O)C[C@@H](O)CC(=O)O`, the GI50 was greater than 100 µM in [1]; greater than 100 µM in assay [2]; greater than 100 µM in [3]; 67.7 µM in assay [4]; 18.9 µM in [5]; greater than 100 µM in assay [6]. Further, the GI50 in [7], in assay [8], in [9] and in [10] was greater than 100 µM in each case. Further, the TGI in assay [1], in assay [2], in [3], in assay [4], in [5] and in assay [6] was greater than 100 µM each time. Moreover, the TGI in assay [7], in assay [8], in assay [9] and in [10] was greater than 100 µM each time.

As for `CC1=C2C(=CC(C)(C)[C@@H]2O)C(=O)[C@](C)(O)C12CC2`, the TGI in assay [1] is 0.0537 µM and 0.0431 µM; in assay [2], 0.105 µM and 0.0698 µM; in assay [3], 0.0437 µM and < 0.0311 µM; in [4], 0.0697 µM and 0.594 µM; in assay [6] it was 0.0954 µM and 0.0374 µM; in [7], 0.0532 µM and 0.067 µM. Moreover, the TGI in [8] was 0.107 µM and 0.0788 µM; in assay [9], 0.213 µM and 0.0676 µM; in [10], 0.079 µM and 0.0423 µM. Also, the GI50 was 0.0231 µM in assay [2]; 0.00575 µM in assay [3]; 0.0129 µM and 0.0436 µM in assay [4]; 0.0169 µM in assay [5]; 0.0305 µM in assay [8]; 0.0294 µM in assay [9]. For the same molecule, the GI50 in assay [10] is 0.0237 µM.

With `Oc1c(Cl)cc(Cl)c2ccc(Cn3cc(-c4cc(C(F)(F)F)cc(C(F)(F)F)c4)nn3)nc12`, the GI50 is 1.61 µM in [1]; 1.5 µM in assay [2]; 18.2 µM in [3]; 1.16 µM in assay [4]; 4.52 µM in [5]; 2.9 µM in assay [6]. For the same molecule, the GI50 was 1.97 µM in assay [7], 1.84 µM in assay [8], 16.4 µM in assay [9] and 7.72 µM in assay [10]. The TGI is 3.45 µM in assay [1]; 3.47 µM in [2]; 35.2 µM in [3]; 2.53 µM in [4]; 16.8 µM in assay [5]; 9.23 µM in assay [6]. In addition, the TGI in assay [7] was 4.47 µM; in [8], 4.41 µM; in assay [9] it was 30.1 µM; in [10] it was 21.4 µM.

In the case of `Cc1ccc2nc(-c3ccc(OCC(=O)N=Nc4c(O)[nH]c5ccccc45)cc3)[nH]c2c1`, the GI50 in assay [1] was 5.43 µM; in [2], 3.61 µM; in [3], 2.01 µM; in assay [4] it was 2.8 µM; in assay [5], 1.86 µM; in assay [6], 19.1 µM. The GI50 in assay [7] was 2.06 µM; in [8] it was 45.1 µM; in assay [9], 17.5 µM; in assay [10] it was 4.1 µM. For the same molecule, the TGI in assay [1] was greater than 100 µM; in assay [2] it was 16.1 µM; in [3] it was 4.06 µM; in assay [4], 10.2 µM; in assay [5], 3.6 µM; in assay [6] it was greater than 100 µM. Also, the TGI was 4.38 µM in assay [7], greater than 100 µM in [8], 37 µM in [9] and 20.5 µM in [10].

Turning to `O=c1cc(-c2ccc(O)cc2)oc2cc(O[C@@H]3O[C@H](CO)[C@@H](O)[C@H](O)[C@H]3O)cc(O)c12`, the TGI is greater than 100 µM in assay [1]; greater than 100 µM in assay [2]; greater than 100 µM in [3]; 0.718 µM in assay [4]; greater than 100 µM in assay [5]; greater than 100 µM in [6]. Moreover, the TGI in assay [7], in [8], in assay [9] and in [10] was greater than 100 µM each time.
